Reference: US4804651A, “Methods and compositions for the treatment of psoriasis” (Board of Regents, The University of Texas System, priority 1987, dated 1989)
Read-outs that look alike come from different tables or passages of the source.

How the values were obtained:
[1] = Treatment of severe psoriasis in an individual with AIDS-related complex
Cynomolgus monkeys [2] = details: cited from earlier work
[3] = tested on: patients (AIDS) recovered from Pneumocystis carinii pneumonia (PCP) and late AIDS-Related Complex (ARC); details: cited from earlier work
dogs = details: IV dose levels up to 85 mg/kg/day for 2 weeks; cited from earlier work
mice = details: intravenous (IV); cited from earlier work
pregnant rats = details: up to 500 mg/kg oral, gestation day 6 through 15; cited from earlier work
rats [4] = details: IV dose levels up to 150 mg/kg/day for one month; cited from earlier work
Cynomolgus monkeys [5] = details: cited from earlier work; remark: listed apart in the source
[6] = in vivo; cited from earlier work
[7] = tested on: patients with AIDS OR AIDS-related complex and HTLV-III/LAV viremia; details: cited from earlier work
rats [8] = details: intravenous (IV); cited from earlier work
rats [9] = details: cited from earlier work
rats [10] = details: oral, up to 500 mg/kg/day; cited from earlier work
[11] = tested on: cultured human lymphocytes; details: in vitro; cited from earlier work
[12] = Progression of AIDS in the individual treated for psoriasis; assay type: in vivo, human; details: 800 mg orally per day
From the text: Of the following examples, examples I through IV disclose toxicity data obtained from the manufacturer of AZT, Burroughs Wellcome Drug Co., developed during the course of obtaining FDA approval for use of the drug in the treatment of AIDS. However, treatment protocols effective in treating psoriasis are similar.
An individual developed severe psoriasis and AIDS-related complex (ARC). As their immunity diminished over the next eight months to a T4 count of 14/mm^3, the psoriasis became more extensive, including 60% of their body, all nails and digits.
Ten months after developing the ARC and psoriasis, the individual developed Pneumocystis carinii pneumonia (PCP) and esophageal candidiasis.

Beagle dogs = details: cited from earlier work
[13] = cited from earlier work
[14] = one female dog, sacrificed on day 14

For `Cc1cn([C@H]2C[C@H](N=[N+]=[N-])[C@@H](CO)O2)c(=O)[nH]c1=O` [azidothymidine, 3'-azido-3'-deoxythymidine], which psoriasis clearance ([1]; 800 mg orally per day) is on record?
The psoriasis clearance was “completely cleared”.

What about the “time to complete clearing of psoriasis” value ([1]; 800 mg orally per day) of the same compound?
The value was “two to three”.

And the “time to significant improvement in lesion pruritus” value ([1]; 800 mg orally per day)?
Its value is ≤ 24 h.

And the lesion pruritus ([1]; 800 mg orally per day, within 24 hours)?
Its lesion pruritus is “a significant improvement in the lesion pruritus”.

What about the “pruritus after AZT was held for 7 days and restarted at half dose” value ([1]; AZT held 7 days, restarted at half dose) of the same compound?
Its value is “The pruritus returned temporarily”.

What about the anemia ([1]; after a month, restarted at half dose) of the same compound?
The anemia was “The AZT was held for 7 days after a month for anemia”.

And the “time until psoriasis began to clear” value ([1]; in vivo)?
The value was 24 h.

What about the improvement of psoriasis ([1]; over a period several weeks) of the same compound?
Its improvement of psoriasis is “significant improvement over a period several weeks”.

What about the “nail regrowth and psoriasis at three months” value ([1]; three months) of the same compound?
The value was “nail regrowth was normal and the psoriasis was completely clear”.

What about the “recovery of hematology values” (Cynomolgus monkeys [2]; 26-39 day post-dosing recovery period) of the same compound?
Its value is “These values returned to normal limits during the 26-39 day post-dosing recovery period”.

What about the “RBCs, hemoglobin, and hematocrit” value (Cynomolgus monkeys [2]; 34, 100, or 300 mg/kg by gavage, day 21) of the same compound?
Its value is “dose-related decreases in RBCs, hemoglobin, and hematocrit at day 21”.

What about the hemoglobin and hematocrit (Cynomolgus monkeys [2]; remainder of treatment period after day 21) of the same compound?
The hemoglobin and hematocrit was “hemoglobin and hematocrit remained stable”.

And the RBCs (Cynomolgus monkeys [2]; until the end of treatment)?
The RBCs was “further reduced until the end of treatment”.

What about the “reduction in dosage or interruption of treatment” value ([3]; 250 mg every 4 hours (1.5 grams daily)) of the same compound?
The value was “Many patients on AZT required a reduction in dosage or interruption of treatment, primarily because of anemia”.

What about the “deaths (AZT group)” value ([3]; 250 mg every 4 hours, as of Sept. 18, 1986, 16 in patients receiving placebo) of the same compound?
Its value is “one”.

What about the “patients requiring blood transfusions” value ([3]; human, in vivo) of the same compound?
Its value is “approximately 25%”.

What about the “decreases in hemoglobin and neutrophils” value ([3]; second month of therapy, dose decreased or drug discontinued) of the same compound?
Its value is “decreases in hemoglobin and neutrophils occurred during the second month of therapy and appeared to be reversible if the dose was decreased or drug discontinued”.

What about the “patients with greater than 25% reduction in hemoglobin” value ([3]; vs 13 of 137 patients receiving placebo, preliminary review) of the same compound?
Its value is 47 of 145.

What about the alterations (dogs) of the same compound?
Its alterations is “No significant alterations were seen”.

And the LD50 (mice)?
Its LD50 is “greater than 70 mg/kg”.

What about the maternal weight (pregnant rats) of the same compound?
The maternal weight was “a slight decrease in maternal weight was noted”.

And the changes (rats [4])?
The changes was “no changes were noted”.

And the vomiting (Cynomolgus monkeys [5]; Cynomolgus monkeys, high dose male, oral, 2 weeks)?
The vomiting was “frequent vomiting in the high dose male”.

And the “RBC, HCT, Hgb” value (Cynomolgus monkeys [5]; all treatment levels (125, 250, 500 mg/kg/day), oral 2 weeks, values still within normal limits)?
Its value is “a slight nondose-related decrease (values still within normal limits) in RBC, HCT, Hgb at all treatment levels”.

And the SGPT (Cynomolgus monkeys [5]; treated males and the high dose female, values still within normal limits)?
The SGPT was “a slight increase in SGPT (Values still within normal limits) in treated males and the high dose female”.

And the side effects [6]?
Its side effects is “hematologic abnormalities such as anemia, neutropenia, bone marrow toxicity, headache, mild CNS symptoms, insomnia”.

And the “mild confusion or anxiety (number of patients)” value ([7]; 29 patients)?
The value was “Three”.

What about the “transient elevations in transaminases (number of patients)” value ([7]; 29 patients) of the same compound?
The value was “Five”.

What about the “transient erythematous rash (number of patients)” value ([7]; 29 patients) of the same compound?
Its value is “one”.

And the decline in hemoglobin ([7]; by six weeks)?
Its decline in hemoglobin is “all patients had some decline in hemoglobin by six weeks, the change was not proportional to the starting dose”.

What about the deaths ([7]; during the year since the trial was initiated) of the same compound?
The deaths was “Four”.

And the “anemia which warranted dose reduction or temporary interruption” value ([7]; human, in vivo, po)?
Its value is “Twenty of 28 patients”.

And the “dose-limiting toxicity / response of neutropenia” value ([7]; human, in vivo)?
The value was “appeared to be the dose-limiting toxicity. Neutropenia responded favorably to reduction in dose of AZT”.

What about the “effect on electrolytes or renal or cardiac function” value ([7]; human, in vivo) of the same compound?
The value was “no effect on electrolytes or renal or cardiac function”.

What about the “headache (number of patients)” value ([7]; human, in vivo) of the same compound?
The value was 8 patients.

What about the “neutropenia (number of patients)” value ([7]; human, in vivo) of the same compound?
The value was 13 patients.

And the “generalized pruritus (number of patients)” value ([7]; one episode, 29 patients)?
The value was “one”.

What about the bone marrow biopsies ([7]; three patients) of the same compound?
The bone marrow biopsies was “megaloblastic changes”.

What about the reversibility of anemia ([7]; when the drug is discontinued) of the same compound?
Its reversibility of anemia is “reversible in most patients when the drug is discontinued”.

What about the LD50 (rats [8]) of the same compound?
Its LD50 is “greater than 70 mg/kg”.

What about the glucose (rats [9]; high dose female rats, day 89) of the same compound?
The glucose was “A mild increase in glucose was observed only in high dose female rats on day 89”.

And the “clinical observation (staining of the anogenital area)” value (rats [9]; high dose male rats)?
Its value is “occasional staining of the anogenital area in high dose male rats”.

What about the SGOT (rats [9]; high dose rats at various times) of the same compound?
The SGOT was “a mild decrease in SGOT in high dose rats at various times”.

And the “hematologic changes or gross pathologic changes” value (rats [9]; rats, 13 weeks oral)?
The value was “no hematologic changes or gross pathologic changes”.

What about the treatment related deaths (rats [9]; rats, 56, 167 or 500 mg/kg/day by gavage, 13 weeks) of the same compound?
Its treatment related deaths is “no treatment related deaths”.

And the “histologic changes in liver and kidney” value (rats [10])?
The value was “very minimal histologic changes in the liver and kidney of a few animals were observed”.

What about the clastogenicity [11] of the same compound?
The clastogenicity was “clastogenic”.

What about the “efficacy in relieving the progression of AIDS” value [12] of the same compound?
The value was “no efficacy in relieving the progression of this individual's AIDS”.

What about the leukopenia and thrombocytopenia (Beagle dogs; Beagle dogs, oral, all dose levels (125, 250, 500 mg/kg/day), 2 weeks) of the same compound?
Its leukopenia and thrombocytopenia is “Moderate to marked leukopenia and thrombocytopenia was noted at all dose levels”.

What about the “vomiting and fecal alterations” value (Beagle dogs; Beagle dogs, oral, high doses, daily for 2 weeks) of the same compound?
Its value is “Vomiting and fecal alterations (with blood) were seen in dogs receiving high doses”.

What about the “bone marrow and lymphoid tissue findings” value (Beagle dogs; Beagle dogs, oral, further studies) of the same compound?
The value was “hypocellularity of the bone marrow; hypoactive lymphoid tissues were also noted”.

What about the gross gastrointestinal findings (Beagle dogs; high dose dogs and a mid-dose female, high dose female) of the same compound?
Its gross gastrointestinal findings is “hemorrhage in the gastrointestinal tract in the high dose dogs and a mid-dose female, as well as a maturational defect with mucosal atrophy in the intestinal tract of the high dose female were observed”.

What about the “alkaline phosphatase, BUN, and creatinine” value (Beagle dogs; [14]) of the same compound?
Its value is “alkaline phosphatase, BUN, and creatinine were elevated”.

What about the weight loss (Beagle dogs; [14]) of the same compound?
Its weight loss is “significant weight loss”.

What about the Cmax ([13]; Group A, IV, 1.0 mg/kg Q 8 hr) of the same compound?
The Cmax was 0.44 ± 0.14 microgram/ml.

What about the Cmax ([13]; Group A, oral, 2.0 mg/kg Q 8 hr) of the same compound?
Its Cmax is 0.53 ± 0.11 microgram/ml.

And the Cmax ([13]; Group B, IV, 2.5 mg/kg Q 8 hr)?
Its Cmax is 1.17 ± 0.49 microgram/ml.

And the Cmax ([13]; Group B, oral, 5.0 mg/kg Q 8 hr)?
The Cmax was 1.37 ± 0.58 microgram/ml.

And the Cmax ([13]; Group C, IV, 2.5 mg/kg Q 4 hr)?
The Cmax was 1.06 ± 0.03 microgram/ml.

And the Cmax ([13]; Group C, oral, 5.0 mg/kg Q 4 hr)?
The Cmax was 1.57 ± 0.81 microgram/ml.

And the Cmax ([13]; Group D, IV, 5.0 mg/kg Q 4 hr)?
Its Cmax is 2.28 ± 0.31 microgram/ml.

What about the Cmax ([13]; Group D, oral, 10.0 mg/kg Q 4 hr) of the same compound?
The Cmax was 3.14 ± 0.73 microgram/ml.

And the Cmax ([13]; Group E, IV, 7.5 mg/kg Q 4 hr)?
The Cmax was 4.71 ± 0.79 microgram/ml.

What about the Cmax ([13]; Group E, oral, 15.0 mg/kg Q 4 hr) of the same compound?
The Cmax was 10.40 ± 3.47 microgram/ml.

What about the total body clearance ([13]; IV doses from 1.0 to 5.0 mg/kg) of the same compound?
Its total body clearance is “approximately 1900 ml/min/70 kg”.

What about the “dose excreted unchanged in the urine as AZT” value ([13]; IV dosing) of the same compound?
The value was “about 25%”.

What about the “plasma decay after the end of infusion” value ([13]; IV) of the same compound?
Its value is “biexponential decay after the end of infusion indicating two-compartmental pharmacokinetics”.

What about the mean half-life ([13]; all dose levels, IV and oral dosing) of the same compound?
The mean half-life was “approximately 1.0 hr”.

And the “dose proportionality of Cmax and AUC” value ([13]; between 5.0 and 7.5 mg/kg IV and 10.0 and 15 mg/kg oral)?
Its value is “a disproportional increase in peak concentrations (Cmax) and area under the plasma-concentration time curve (AUC)”.

What about the “drug or metabolite accumulation” value ([13]; chronic IV or oral dosing) of the same compound?
The value was “No unexpected drug or metabolite accumulation was observed”.

What about the “dose proportionality of concentrations” value ([13]; doses to 5.0 mg/kg IV and 10 mg/kg oral) of the same compound?
Its value is “increased proportionally with doses to 5.0 and 10 mg/kg, for IV and oral administration respectively, indicating dose-independent kinetics up to these dosages”.

And the renal clearance ([13]; estimated)?
Its renal clearance is “about 500 ml/min”.

What about the bioavailability ([13]; oral, all dose levels) of the same compound?
Its bioavailability is 60-70%.

What about the “cause of incomplete bioavailability” value ([13]; oral) of the same compound?
Its value is “appears to be due to first-pass metabolism, rather than reduced absorption”.
